Reference: BindingDB's records for doi:10.1021/jm049768a (Eli Lilly, 2004)

Target: 3-phosphoinositide-dependent protein kinase 1 (Homo sapiens) (UniProt O15530)
Assay: Inhibition of human PDK-1

IC50 [µM]	SMILES
4.3	O=C1NC(=O)C(c2cnc3ccccn23)=C1c1cn2c3c(cccc13)CN(C(=O)N1CCCCC1)CC2 [3-Imidazo[1,2-a]pyridin-3-yl-4-[2-(piperidine-1-carbonyl)-1,2,3,4-tetrahydro-[1,4]diazepino[6,7,1-hi]indol-7-yl]-pyrrole-2,5-dione]
> 20	CN(C)C(=O)N1CCn2cc(C3=C(c4cnc5ccccn45)C(=O)NC3=O)c3cccc(c32)C1 [7-(4-Imidazo[1,2-a]pyridin-3-yl-2,5-dioxo-2,5-dihydro-1H-pyrrol-3-yl)-3,4-dihydro-1H-[1,4]diazepino[6,7,1-hi]indole-2-carboxylic acid dimethylamide]
6.5	CC(C)OC(=O)N1CCn2cc(C3=C(c4cnc5ccccn45)C(=O)NC3=O)c3cccc(c32)C1 [7-(4-Imidazo[1,2-a]pyridin-3-yl-2,5-dioxo-2,5-dihydro-1H-pyrrol-3-yl)-3,4-dihydro-1H-[1,4]diazepino[6,7,1-hi]indole-2-carboxylic acid isopropyl ester]
